Data on one compound can be found in patent US20260053942A1, “STING AGONIST IMMUNOSTIMULATORY ANTIBODY DRUG CONJUGATES” (ASTELLAS PHARAMA INC., priority 2024, published 2026).

Molecules are shown by their SMILES. Where two headings read alike, the source gives them in different places.

Assay [1] relates to NCI-H292 cells. Kind of assay: NCI-H292/PBMC co-culture: tumor cell killing (NCI-H292 cell count). It counts as cell-based, human. The note with it: TROP2 positive NCI-H292/PBMC co-culture. The method, then: (§1) The ability of different TROP2 iADCs to induce cancer cell killing, immune activation, and cytokine release was evaluated in an in vitro co-culture assay with human cancer cells and human PBMCs.
(§2) Residual RBCs were removed using ACK lysis buffer (Gibco) for 10 minutes, followed by DPBS wash. Isolated PBMCs were counted, resuspended in freezing medium (Sigma) and stored in a freezing vessel at −80° C. for 24 hours before being transferred to vapor-phase liquid nitrogen for long-term storage.
For the co-culture assay, cancer cells were plated on transparent flat bottom polystyrene plates and allowed to attach overnight. The next day, serially diluted (1:4) test articles were formulated at 3× starting concentration in complete RPMI media and added onto each well. […]
(§3) On the day of sample collection, cell culture supernatants were collected and stored at −80° C. until cytokine release analyses were performed. […] Cells were then washed with FACS buffer again and read on Cytek flow cytometer. […]
The ability of different TROP2 iADCs to induce cancer cell killing, immune activation, and cytokine release was evaluated in an in vitro co-culture assay with TROP2 positive CaoV3 cells or NCI-H292 cells and human PBMCs. h1925-C06, an anti-TROP2 antibody, was conjugated to LP-C1 on the heavy chain Y180/F404 sites and to different STING agonist linker payloads at light chain K42 sites. […]

The next assay has as its system NCI-H441 cells. Kind of assay: NCI-H441/PBMC co-culture (title of Table 16): tumor cell killing. It is filed as cell-based, human. Here is the method: as §1, §2
(§4) For the co-culture assay, cancer cells were plated on transparent flat bottom polystyrene plates and allowed to attach overnight. The next day, serially diluted (1:4) test articles were formulated at 3× starting concentration in complete RPMI media and added onto each well. Human PBMCs were thawed and resuspended in RPMI supplemented with 10% heat-inactivated fetal bovine serum from Hyclone, 1% Penicillin/Streptomycin and 2 mM/L-glutamax. PBMCs were then added into the same well at a final ratio of PBMCs:cancer cells=30:1. Plates were incubated for 2 or 3 days at 37° C. with 5% CO2 in a cell culture incubator.
as §3

Assay [2] has as its system NCI-H441 cells and human PBMCs. Kind of assay: NCI-H441/PBMC co-culture (title of Table 16): cytokine (IP-10) release. It counts as cell-based. Details: key: NC = Not Calculable due to incomplete curve. Here is the method:
as §4
(§5) To measure the cytokine released in this assay, customized MSD V-plex plates were ordered to measure human IL6, IP-10, TNFα, IFNγ, IL-1α, MCP-1, MIP1α. The supernatant was thawed and diluted 1:50 using dilution buffer provided by the vendor before being added into the MSD plates. Cytokine measurement in the cell culture supernatant was carried out using protocols provided by the vendor. Raw data generated by the Meso Scale Discovery (MSD®) SQ120 plate reader were imported into MSD Discovery Workbench software. Unknown sample values were interpolated from standard curves by the software and imported into GraphPad Prism. Each cytokine level was fitted with non-linear regression analysis, using log(agonist) vs. response, variable slope, 4-parameter fit equation in GraphPad Prism. […]

Another assay concerns NCI-H460 cells. Kind of assay: NCI-H460/PBMC co-culture (TROP2 negative): tumor cell killing. It counts as cell-based, human. Here is the method: as §1, §2, §4
On the day of sample collection, cell culture supernatants were collected and stored at −80° C. until cytokine release analyses were performed. All the cells in the well were combined (both suspension and adherent cells) and resuspended in 50 μL of PBS containing Live/Dead Fixable Violet Dead Cell Stain (Thermo Fisher) and 1× human Fc block (BD Biosciences) and incubated at 37° C. for 20 minutes. […] After incubation on ice for 1 hour, cells were washed with FACS buffer and fixed with 50 uL/well of 2% PFA (paraformaldehyde) for 20 minutes. Cells were then washed with FACS buffer again and read on Cytek flow cytometer. FACS data analysis was done by Flowjo software to identify monocytes, B cells, CD4+ T cells, CD8+ T cells, NK cells and Dendritic cells and their activation status. Data from Flowjo was exported and plotted using non-linear regression analysis, log(agonist/inhibitor) vs. response, variable slope, 4-parameter fit equation in GraphPad Prism. […]

Assay [3] deals with NCI-H460 cells and human PBMCs. The experiment in a line: NCI-H460/PBMC co-culture (TROP2 negative): cytokine (IP-10) release. It counts as cell-based. Details: key: NC = Not Calculable due to incomplete curve. Here is the method: as §4, §5
For assay [4], the system named is NCI-H292 cells. Kind of assay: IP-10 and IL-6 release from TROP2 positive NCI-H292 cells, 120 hours (MSD). It is filed as cell-based, human. The note with it: for EC50: Homo sapiens. Here is the method: The cell supernatant was collected and IP-10 and IL-6 released in the cell culture medium was measured using Streptavidin single spot 96 well plates, compatible human antibody pairs, and calibrating solutions commercially available from MesoScale Discovery. Raw data generated by the Meso Scale Discovery (MSD®) SQ120 plate reader was imported into MSD Discovery Workbench software. Unknown sample values were interpolated from standard curves by the software and imported into Graphpad Prism. Each cytokine level was fitted with non-linear regression analysis, using log(agonist) vs. response, variable slope, 4-parameter fit equation in GraphPad Prism.

For `CC[C@@]1(O)C(=O)OCc2c1cc1n(c2=O)Cc2c-1nc1cc(F)c(C)c3c1c2[C@@H](N)CC3` [Exatecan, exatecan, reference compound], the “tumor cell killing (in words)” value in the assay on NCI-H292 cells [1] and with NCI-H460 cells (TROP2 negative NCI-H460/PBMC co-culture) was “potent tumor cell killing” in each case. Also, the half-maximal inhibitory concentration (IC50) (as a rule, the concentration at which inhibition is half-maximal) was 0.44 nM in the assay on NCI-H441 cells (Homo sapiens, tumor cell killing, read-out: Cancer Cell Count IC50) and 0.38 nM with NCI-H460 cells (Homo sapiens, NCI-H460/PBMC co-culture, TROP2 negative, tumor cell killing, read-out: Cancer Cell Count IC50). Besides, the “Cancer Cell Count Span” value in the assay on NCI-H441 cells (Span = Top minus Bottom of dose response curve) was 5,749 Cell Count; with NCI-H460 cells (NCI-H460/PBMC co-culture, TROP2 negative), 23,530 Cell Count. In addition, the entries for the “IP-10 Release Span” value (in assay [2]; in assay [3]; in the assay with NCI-H292 cells [4] (TROP2 positive NCI-H292 cells)) were “NC”, “NC” and 203 pg/mL, respectively. In addition, the EC50 (commonly the concentration that produces a half-maximal response) in the assay on NCI-H292 cells [4] (TROP2 positive NCI-H292 cells, read-out: IL-6 Release EC50) turned out to be 14.7 nM; in the assay on NCI-H292 cells [4] (TROP2 positive NCI-H292 cells, read-out: IP-10 Release EC50) it was 0.87 nM. In addition, the “induction of IP-10 and IL-6 release (in words)” value in the assay with NCI-H292 cells [4] (NCI-H292 cells) is listed as “not”. Further, the “IL-6 Release Span” value in the assay on NCI-H292 cells [4] (TROP2 positive NCI-H292 cells) was 1410 pg/mL.
